Results from US11846631B2, “Methods for determining drug effects on a mature cardiomyocyte” (ORGANOS, INC., priority 2018, dated 2023).

Legend:
[1] = system: the other currents; assay: Inversion of voltage and calcium traces measured in hiPSC-CMs in a cardiac MPS (channel block identification); assay type: cell-based, human; settings: cisapride 10 nM; measured MPS data of hiPSC-CMs (FIG. 5)
Excerpt: [formula] […] The Minimization Procedure

[2] = biological target: IKr (Homo sapiens, UniProt Q12809); settings: from the literature; cited from earlier work
Sequence of IKr (Q12809 whole entry): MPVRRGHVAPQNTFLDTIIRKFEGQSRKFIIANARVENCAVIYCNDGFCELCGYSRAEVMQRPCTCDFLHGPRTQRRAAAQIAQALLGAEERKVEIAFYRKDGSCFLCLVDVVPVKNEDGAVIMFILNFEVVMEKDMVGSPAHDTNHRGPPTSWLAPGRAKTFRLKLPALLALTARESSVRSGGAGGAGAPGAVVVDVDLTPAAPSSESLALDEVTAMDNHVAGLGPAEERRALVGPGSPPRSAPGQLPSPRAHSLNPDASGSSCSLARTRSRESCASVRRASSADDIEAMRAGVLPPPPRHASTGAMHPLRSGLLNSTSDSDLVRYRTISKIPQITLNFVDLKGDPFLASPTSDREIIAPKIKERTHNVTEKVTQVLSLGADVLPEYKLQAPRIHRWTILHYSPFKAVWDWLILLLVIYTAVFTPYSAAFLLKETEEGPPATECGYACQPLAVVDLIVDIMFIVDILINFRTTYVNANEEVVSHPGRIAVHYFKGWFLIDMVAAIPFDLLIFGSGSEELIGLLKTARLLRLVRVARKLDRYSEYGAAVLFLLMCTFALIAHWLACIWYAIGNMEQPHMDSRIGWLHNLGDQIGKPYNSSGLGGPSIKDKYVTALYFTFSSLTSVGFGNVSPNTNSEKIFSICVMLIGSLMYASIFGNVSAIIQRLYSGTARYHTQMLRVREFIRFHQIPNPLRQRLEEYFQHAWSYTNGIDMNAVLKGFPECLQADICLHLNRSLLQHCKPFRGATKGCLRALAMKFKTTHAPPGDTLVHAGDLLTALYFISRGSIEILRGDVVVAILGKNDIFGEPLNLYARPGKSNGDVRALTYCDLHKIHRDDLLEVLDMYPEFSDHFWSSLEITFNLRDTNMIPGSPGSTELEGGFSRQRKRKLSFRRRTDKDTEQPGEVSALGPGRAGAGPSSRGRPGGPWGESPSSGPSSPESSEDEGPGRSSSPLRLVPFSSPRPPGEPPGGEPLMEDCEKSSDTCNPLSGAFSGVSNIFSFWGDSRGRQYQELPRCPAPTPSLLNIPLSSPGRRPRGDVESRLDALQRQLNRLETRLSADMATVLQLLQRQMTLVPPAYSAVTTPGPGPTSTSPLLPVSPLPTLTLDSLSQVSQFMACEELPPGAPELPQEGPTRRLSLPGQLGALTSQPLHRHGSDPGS

[3] = biological target: ICaL (Homo sapiens, UniProt Q13936); settings: from the literature; cited from earlier work
Sequence of ICaL (Q13936 whole entry): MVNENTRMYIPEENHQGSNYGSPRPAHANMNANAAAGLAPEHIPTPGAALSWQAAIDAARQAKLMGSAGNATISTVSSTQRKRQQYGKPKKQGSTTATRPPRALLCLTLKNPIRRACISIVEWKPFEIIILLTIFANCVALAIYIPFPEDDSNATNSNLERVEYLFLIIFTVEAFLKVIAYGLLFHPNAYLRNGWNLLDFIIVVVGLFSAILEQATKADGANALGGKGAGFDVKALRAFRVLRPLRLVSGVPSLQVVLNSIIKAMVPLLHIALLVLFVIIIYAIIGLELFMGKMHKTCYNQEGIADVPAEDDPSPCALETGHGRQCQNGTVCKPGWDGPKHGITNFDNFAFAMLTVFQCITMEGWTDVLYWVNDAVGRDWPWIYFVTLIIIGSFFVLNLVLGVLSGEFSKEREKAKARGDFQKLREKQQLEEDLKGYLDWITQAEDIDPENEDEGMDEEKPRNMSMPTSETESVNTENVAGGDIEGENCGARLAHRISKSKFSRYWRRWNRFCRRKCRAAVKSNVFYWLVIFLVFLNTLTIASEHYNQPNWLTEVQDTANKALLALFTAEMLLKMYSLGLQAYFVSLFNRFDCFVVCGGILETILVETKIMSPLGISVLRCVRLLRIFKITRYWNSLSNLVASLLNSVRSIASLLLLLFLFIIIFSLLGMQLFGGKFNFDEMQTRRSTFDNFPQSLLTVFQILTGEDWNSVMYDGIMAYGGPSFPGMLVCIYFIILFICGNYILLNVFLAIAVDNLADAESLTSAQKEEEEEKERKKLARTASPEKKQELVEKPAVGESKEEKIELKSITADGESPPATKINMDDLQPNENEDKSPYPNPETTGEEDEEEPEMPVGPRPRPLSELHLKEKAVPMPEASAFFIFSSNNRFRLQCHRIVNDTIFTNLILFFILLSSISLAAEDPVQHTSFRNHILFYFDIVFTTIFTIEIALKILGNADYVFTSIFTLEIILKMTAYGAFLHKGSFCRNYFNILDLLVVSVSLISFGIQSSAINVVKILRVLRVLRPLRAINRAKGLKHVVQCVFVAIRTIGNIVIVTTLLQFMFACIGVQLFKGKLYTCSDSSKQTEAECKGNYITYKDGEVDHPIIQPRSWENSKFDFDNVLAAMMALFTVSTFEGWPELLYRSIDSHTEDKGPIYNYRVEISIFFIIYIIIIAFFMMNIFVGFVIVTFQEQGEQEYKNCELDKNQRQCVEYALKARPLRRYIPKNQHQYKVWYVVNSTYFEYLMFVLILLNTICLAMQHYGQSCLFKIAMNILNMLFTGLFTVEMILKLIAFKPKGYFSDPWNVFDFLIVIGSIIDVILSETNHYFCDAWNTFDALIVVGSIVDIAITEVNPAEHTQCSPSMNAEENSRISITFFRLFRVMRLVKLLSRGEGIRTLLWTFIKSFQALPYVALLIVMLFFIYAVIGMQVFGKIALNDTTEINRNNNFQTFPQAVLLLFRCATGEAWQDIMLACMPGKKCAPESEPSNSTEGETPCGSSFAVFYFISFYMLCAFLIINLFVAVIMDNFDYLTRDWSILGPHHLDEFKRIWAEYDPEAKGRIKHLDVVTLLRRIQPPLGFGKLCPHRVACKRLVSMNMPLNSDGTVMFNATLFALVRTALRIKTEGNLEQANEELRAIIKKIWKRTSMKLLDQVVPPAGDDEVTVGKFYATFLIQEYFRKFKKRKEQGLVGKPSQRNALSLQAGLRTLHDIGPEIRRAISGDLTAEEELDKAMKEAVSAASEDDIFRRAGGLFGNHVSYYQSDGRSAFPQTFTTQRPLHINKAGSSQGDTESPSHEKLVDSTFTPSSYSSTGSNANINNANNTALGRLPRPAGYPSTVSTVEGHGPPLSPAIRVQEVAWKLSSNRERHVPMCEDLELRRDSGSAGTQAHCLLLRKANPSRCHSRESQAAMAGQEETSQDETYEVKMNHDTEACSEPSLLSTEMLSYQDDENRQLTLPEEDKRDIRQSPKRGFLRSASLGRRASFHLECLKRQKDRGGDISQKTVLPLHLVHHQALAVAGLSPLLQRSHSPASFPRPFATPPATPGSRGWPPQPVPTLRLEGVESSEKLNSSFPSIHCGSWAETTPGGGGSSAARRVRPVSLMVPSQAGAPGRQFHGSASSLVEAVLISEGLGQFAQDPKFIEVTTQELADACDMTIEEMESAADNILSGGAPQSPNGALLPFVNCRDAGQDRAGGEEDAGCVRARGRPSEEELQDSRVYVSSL
Sequence of ICaL (Q08289 whole entry partner): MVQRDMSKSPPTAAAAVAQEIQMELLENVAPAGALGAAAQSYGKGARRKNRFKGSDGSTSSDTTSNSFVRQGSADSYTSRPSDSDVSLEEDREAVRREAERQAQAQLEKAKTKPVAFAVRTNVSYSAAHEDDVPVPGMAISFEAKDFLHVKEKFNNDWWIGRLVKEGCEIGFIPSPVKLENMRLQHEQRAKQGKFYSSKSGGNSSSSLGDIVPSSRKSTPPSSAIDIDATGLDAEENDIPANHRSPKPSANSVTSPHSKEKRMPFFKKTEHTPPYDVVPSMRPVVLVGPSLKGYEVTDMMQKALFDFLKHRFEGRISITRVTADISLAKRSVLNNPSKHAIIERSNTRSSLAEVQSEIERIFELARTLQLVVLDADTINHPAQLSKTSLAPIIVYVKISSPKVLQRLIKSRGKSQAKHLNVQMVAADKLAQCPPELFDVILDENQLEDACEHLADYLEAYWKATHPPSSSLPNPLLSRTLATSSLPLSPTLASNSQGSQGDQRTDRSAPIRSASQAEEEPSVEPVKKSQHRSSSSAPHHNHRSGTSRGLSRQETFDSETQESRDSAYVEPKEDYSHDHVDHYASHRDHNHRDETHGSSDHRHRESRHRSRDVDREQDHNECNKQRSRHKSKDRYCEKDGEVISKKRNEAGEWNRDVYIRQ
Sequence of ICaL (P54289 25-946 partner limits assumed): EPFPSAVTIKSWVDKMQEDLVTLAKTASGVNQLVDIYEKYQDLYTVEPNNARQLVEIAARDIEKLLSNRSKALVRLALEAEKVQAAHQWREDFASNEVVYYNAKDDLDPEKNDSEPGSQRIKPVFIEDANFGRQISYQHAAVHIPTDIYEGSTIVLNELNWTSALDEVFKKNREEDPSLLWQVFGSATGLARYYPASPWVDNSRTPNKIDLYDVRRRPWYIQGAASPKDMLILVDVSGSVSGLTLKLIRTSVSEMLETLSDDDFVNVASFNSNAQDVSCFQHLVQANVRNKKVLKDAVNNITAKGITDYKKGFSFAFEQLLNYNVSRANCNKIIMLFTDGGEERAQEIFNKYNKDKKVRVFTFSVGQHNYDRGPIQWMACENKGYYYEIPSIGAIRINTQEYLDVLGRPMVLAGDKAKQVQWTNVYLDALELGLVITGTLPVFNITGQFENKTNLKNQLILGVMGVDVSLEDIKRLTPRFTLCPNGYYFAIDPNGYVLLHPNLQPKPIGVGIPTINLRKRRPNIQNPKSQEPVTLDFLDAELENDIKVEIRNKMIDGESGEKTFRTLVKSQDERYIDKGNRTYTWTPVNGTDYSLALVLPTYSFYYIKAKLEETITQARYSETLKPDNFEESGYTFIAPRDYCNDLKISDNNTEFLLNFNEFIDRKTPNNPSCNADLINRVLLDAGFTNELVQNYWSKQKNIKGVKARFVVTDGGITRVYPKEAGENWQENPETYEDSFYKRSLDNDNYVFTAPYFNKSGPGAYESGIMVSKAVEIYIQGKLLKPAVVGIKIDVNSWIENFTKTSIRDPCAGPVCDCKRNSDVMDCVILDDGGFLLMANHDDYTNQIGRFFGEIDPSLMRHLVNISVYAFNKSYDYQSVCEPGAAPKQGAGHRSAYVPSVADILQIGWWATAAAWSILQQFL
Sequence of ICaL (P54289 947-1103 partner limits assumed): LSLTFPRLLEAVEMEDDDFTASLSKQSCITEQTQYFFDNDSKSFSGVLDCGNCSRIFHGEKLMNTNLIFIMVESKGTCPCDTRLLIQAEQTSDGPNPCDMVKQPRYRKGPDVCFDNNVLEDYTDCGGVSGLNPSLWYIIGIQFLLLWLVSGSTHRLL

Row | SMILES | Effect on the other currents, full inversion procedure [1] | Known effect on IKr [2] | Known effect on ICaL [3]
1 | COc1cc(N)c(Cl)cc1C(=O)NC1CCN(CCCOc2ccc(F)cc2)CC1OC (stereo not drawn) [cisapride] | nearly unaffected | blocks | 
2 | COc1ccc(CCN(C)CCCC(C#N)(c2ccc(OC)c(OC)c2)C(C)C)cc1OC (stereo not drawn) [verapamil] |  |  | blocks
